From US10363257B2 (ZENITH EPIGENETICS LTD., priority 2013, dated 2019)

Key:
[1] = In vivo efficacy in experimental autoimmune encephalomyelitis (EAE) model of MS; set-up: species or system mouse; conditions: EAE mice (MOG35-55/CFA, female C57Bl/6), 50 to 125 mg/kg b.i.d. from time of immunization
Source text: Experimental autoimmune encephalomyelitis (EAE) is a T-cell-mediated autoimmune disease of the CNS which shares many clinical and histopathological features with human multiple sclerosis (MS). EAE is the most commonly used animal model of MS. […] Cytokines IL-23, IL-6 and IL-17, which are either critical for Th1 and Th17 differentiation or produced by these T cells, play a critical and non-redundant role in EAE development. Therefore, drugs targeting production of these cytokines are likely to have therapeutic potential in treatment of MS.
Compounds of Formula I or la were administered at 50 to 125 mg/kg b.i.d. from time of immunization to EAE mice to assess anti-inflammatory activity. In this model, EAE is induced by MOG35-55/CFA immunization and pertussis toxin injection in female C57BI/6 mice.

[2] = test system: hIL-6 mRNA; assay: Inhibition of hIL-6 mRNA transcription in LPS-stimulated U937 cells; type: cell-based; conditions: Homo sapiens, U-937; PMA-differentiated U937 cells, 1 h pretreatment, 1 ug/mL LPS stimulation, 3 h; read-out: IL-6 activity (Inhibition of hIL-6 mRNA Transcription)
Summary of the method: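 U937 cells differentiated 3 days with 60 ng/mL PMA, pretreated 1 h with compound (0.1% DMSO), then stimulated with 1 ug/mL E. coli LPS for 3 h at 37 °C. hIL-6 mRNA measured by one-step TaqMan RT-qPCR, normalized to cyclophilin. Fold expression relative to control; triplicate wells.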

[3] = test system: hApoA-1 mRNA; assay: Up-regulation of hApoA-1 mRNA transcription in Huh7 cells; type: cell-based, human; conditions: EC170, Huh7 cells, 48 h treatment, ApoA-I mRNA
Description: In this example, ApoA-I mRNA in tissue culture cells was quantitated to measure the transcriptional up-regulation of ApoA-I when treated with a compound of the invention.
Huh7 cells (2.5×10^5 per well) were plated in a 96-well plate using 100 μL DMEM per well, (Gibco DMEM supplemented with penicillin/streptomycin and 10% FBS), 24 h before the addition of the compound of interest. After 48 h treatment, the spent media was removed from the Huh-7 cells and placed on ice (for immediate use) or at −80° C. (for future use) with the “LDH cytotoxicity assay Kit II” from Abcam. The cells remaining in the plate were rinsed with 100 μL PBS.
Then 85 μL of cell lysis solution was added to each well and incubated for 5-10 min at room temperature, to allow for complete cell lysis and detachment. mRNA was then prepared using the “mRNA Catcher PLUS plate” from Life Technologies, according to the protocol supplied. After the last wash, as much wash buffer as possible was aspirated without allowing the wells to dry. […]
The eluted mRNA isolated was then used in a one-step real-time PCR reaction, using components of the Ultra Sense Kit together with Life Technologies primer-probe mixes. Real-time PCR data was analyzed, using the Ct values, to determine the fold induction of each unknown sample, relative to the control (that is, relative to the control for each independent DMSO concentration).

[4] = test system: human AML MV-4-11 cells; assay: Inhibition of cell proliferation in MV4-11 cells (CellTiter Aqueous One); type: cell-based; conditions: MV4-11, 72 h
Summary of the method: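 Exponentially growing MV-4-11 cells (5×10^4/well) were treated immediately with two-fold dilutions of compound from 30 μM to 0.2 μM, in triplicate, for 72 h at 37° C, 5% CO2. Viability was measured by MTS absorbance at 490 nm after 3–4 h. Proliferation relative to DMSO after blank correction gave IC50.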

IC50 [2]: ≤ 300 nM
IC50 [4]: ≤ 300 nM
Compound: Cc1noc(C)c1-c1cc(N)c2ncn(Cc3ccccc3)c2c1 [Example Compound 7, 1-Benzyl-6-(3,5-dimethylisoxazol-4-yl)-1H-benzo[d]imidazol-4-amine]
In vivo activity [1]: Active
ApoA-1 activity [3]: +++ (EC170 value less than or equal to 0.3 μM were deemed to be highly active (+++))
